Assay results from patent US7713960B2, “Inhibition of the Raf/Mek/P-Erk pathway for treating cancer” (University of South Florida, priority 2005, dated 2010).
Several values for one entry are separate records, joined by “and”; a condition that tells them apart may be missing. Equal entries are not always repeated. Structures can show the parent of a compound that is named as a salt.

Key:
P-Erk 1/2 [1] = assay: P-Erk 1/2 levels (Western blotting), SF-539; type: cell-based, human
Experimental: (§1) Western Blotting—Treated cell samples were lysed in 30 mM HEPES, 10 mM NaCl, 5 mM MgCl2, 25 mM NaF, 1 mM EGTA, 1% Triton-X-100, 10% Glycerol, 2 mM Sodium orthovanidate, 10 μg/mL aprotinin, 10 μg/mL soybean trypsin inhibitor, 25 μg/mL leupeptin, 2 mM phenylmethylsulfonylfluoride (PMSF), 6.4 mg/mL p-nitrophenylphosphate for 30 minutes at 4° C., and proteins run on SDS-PAGE gels then transferred to nitrocellulose membranes. Membranes were blocked in either 5% milk in PBS, pH 7.4, containing 0.1% Tween-20 (PBS-T) or 1% BSA in TBS, pH 7.5, containing 0.1% Tween-20 (TBS-T). Phospho-STAT3 and phospho-AKT antibodies were diluted in 1% BSA in TBS-T while phospho-c-Raf, phospho-Mek, and phospho-p44/p42 MAPK antibodies (Cell Signaling) were diluted in 5% milk in PBS-T for either 1 hour at room temperature or overnight at 4° C. HRP-conjugated secondary antibodies (Jackson ImmunoResearch, West Grove, Pa.) were diluted in 5% milk in PBS-T or TBS-T at a 1:1000 dilution for one hour at room temperature. Western blots results were visualized using enhanced chemiluminescence. Stripping of the membranes for reblotting was done using stripping buffer (62.5 mM Tris pH 7.6, 2% SDS, 0.7% 2-mercaptoethanol) at 50° C. for 30 minutes.

MDA-MB-231 cells [2] = assay: Apoptosis assay (Cell Death Detection ELISA), MDA-MB-231; type: cell-based, human; settings: 48 hours
Experimental: (§2) Apoptosis Assay—Apoptosis was analyzed using the Cell Death Detection ELISA (Roche, Indianapolis, Ind.) measuring cytoplasmic histone-associated mono- and oligonucleosome DNA fragments. Procedures were carried out according to the manufacturers protocol. Briefly, 1×10^5 cells were plated in 60 mm dishes and treated with various doses of ARA-211 or vehicle for 48 hours. Cells were lysed with the provided lysis buffer and lysate was incubated on the ELISA plate for 1 hour to capture the histone associated DNA indicative of apoptotic cells. Anti-DNA peroxidase conjugated antibody was added to detect the cleaved DNA and the microplate was washed and developed with ABTS substrate which was quantitated by microplate reader at 405 nm.

ACHN cells [3] = assay: Anchorage-independent growth (soft agar assay), ACHN; type: cell-based, human
Experimental: (§3) Soft Agar Assay—Anchorage independent growth assays were performed as previously described (Lerner et al., 1997). Briefly, agar was diluted to 0.3% in propagation media containing 20,000 cells and either vehicle or ARA-211 and 1 ml of cell/agar mixture plated on top of 2 ml of a 0.6% layer of agar in medium alone. Cells were grown for three to four weeks at 37° C., 10% Co2 and were fed weekly with 100 μl per well of media/treatment. Quantification of colonies was done using a GS-700 scanning densitometer.

ACHN cells [4] = assay: Nude mouse xenograft model, ACHN (s.c.); type: in vivo, nude mice; settings: i.p. 200 mpk/day
Source text: (§4) Anti-tumor activity in nude mouse xenograft model—Female athymic nude (nu/nu) mice, 5-6 weeks old, were purchased from Charles River (Wilmington, Mass.) and allowed to acclimate in the animal facility for one week. After harvesting, A-549, SNB-19, ACHN, and HCT-116 cells were, resuspended in sterile PBS, and injected s.c. into the right and left flanks (10×10^6 cells per flank) of the mice as previously described (Sun et al., 2005). For MDA-MB-231, cells were harvested and resuspended in PBS (10×10^6 cells per 50 μl) and an equal volume of Matrigel (BD Biosciences, San Jose, Calif.). 100 μl of MDA-MB-231 cells in PBS/Matrigel were injected s.c. into the mammary fat pads between the 2nd and 3rd nipples on each side of the mice. Once the tumors reached approximately 200-300 mm^3 the mice were randomized and treated i.p. with 0.1 ml vehicle (PBS) or ARA-211. Each treatment group consisted of five mice (2 tumors per mouse, a total of 10 tumors). The tumor volumes were determined by measuring the length (l) and width (w) and calculating the volume (V=w^2l/2). Statistical significance between the control and treated animals was determined using a student's t test.

HCT-116 cells [5] = assay: Total cellular cAMP measurement, HCT-116; type: cell-based, human
Experimental: Total cellular cAMP measurement—The measurement of total cellular cAMP was done using a cAMP Biotrak ™ Enzymeimmunoassay (EIA) system (Amersham Biosciences, Piscataway, N.J.) according to the manufacturer's protocol. Briefly, 2000 cells were plated into each well of a 96 well plate. The next day cells were treated with increasing concentrations of ARA-211 or with vehicle for one hour. Alternatively, MDA-MB-231 cells were pre-treated with antagonists to the α1 (Prazosin, Sigma), α2 (Yohimbine, Sigma), β1 (Metoprolol, Sigma), and β2 (ICI 118.551, Sigma) adrenergic receptors at 100 nM for 15 minutes followed by treatment with 10 μM ARA-211 for 45 minutes. Cells were then lysed directly in the wells using the supplied lysis buffer. The lysate was transferred to a 96-well cAMP ELISA plate, and results were quantified using a Wallac Victor 2 plate reader.

P-Erk 1/2 [6] = assay: P-Erk 1/2 levels (Western blotting), HCT-116; type: cell-based, human
Experimental: as §1

MDA-MB-231 cells [7] = assay: Anchorage-independent growth (soft agar assay), MDA-MB-231; type: cell-based, human
Experimental: as §3

A-549 cells = assay: Nude mouse xenograft model, A-549 (s.c.); type: in vivo, nude mice; settings: A-549 xenograft; i.p. 75 mpk/day
Source text: as §4

SF-539 cells = assay: Apoptosis assay (Cell Death Detection ELISA), SF-539; type: cell-based, human; settings: 48 hours
Experimental: as §2

total Erk 1/2 = assay: Total Erk 1/2 levels, MDA-MB-231; type: cell-based, human; settings: at 10 nM
Experimental: as §1

HCT-116 cells [8] = assay: Apoptosis assay (Cell Death Detection ELISA), HCT-116; type: cell-based, human; settings: 48 hours, two single values, dihydrochloride
Experimental: as §2

MDA-MB-231 cells [9] = assay: Nude mouse xenograft model, MDA-MB-231 (mammary fat pads); type: in vivo, nude mice; settings: MDA-MB-231 xenograft; i.p. 200 mpk/day
Source text: as §4

HCT-116 cells [10] = assay: Anchorage-independent growth (soft agar assay), HCT-116; type: cell-based, human
Experimental: as §3

cAMP (Fold Induction) (HCT-116 cells [5]): 1.1 ± 0.1 Fold
SMILES: CC(C)(C)NCC(O)c1ccc(O)c(CO)n1 (stereo not shown) [ARA-211, 2-hydroxymethyl-3-hydroxy-6-(1-hydroxy-2-tert-butylaminoethyl) pyridine, dihydrochloride]
P-Erk ½ (% Inhibition) (P-Erk 1/2 [1]): 100% | Apoptosis (% Induction) (MDA-MB-231 cells [2]): 15 ± 4% | Anchorage Independent Growth (% Inhibition) (ACHN cells [3]): 97.9 ± 1.2% | growth of tumors (ACHN cells [4]): suppressed tumor growth | P-Erk ½ (% Inhibition) (P-Erk 1/2 [6]): 0% | Anchorage Independent Growth (% Inhibition) (MDA-MB-231 cells [7]): 82.7 ± 7.9% | growth of tumors (A-549 cells): is not affected | Apoptosis (% Induction) (SF-539 cells): 9 ± 1.7% | levels of total Erk 1/2 (total Erk 1/2): without affecting | Apoptosis (% Induction) (HCT-116 cells [8]): 0% and 1.2% | growth of tumors (MDA-MB-231 cells [9]): caused tumor regression | Anchorage Independent Growth (% Inhibition) (HCT-116 cells [10]): 7.3 ± 3.1%
